*1 amine or outer side, *2 acyl side, *3 side chain or, on linkers, in order; H or OH if unused. Where a SMILES comes first, the peptide text is derived from it. [ ]: non-standard residue; d: D form. The star is where a group is joined. GluureaLys(ε-3-ClBenzyl) = O=C(O)CC[C@H](NC(=O)N[C@@H](CCCCN(Cc1cccc(Cl)c1)*)C(=O)O)C(=O)O; Dolaproine = CO[C@@H]([C@@H]1CCCN1)[C@@H](C)C(=O)O; Dil = CC[C@H](C)[C@H](NC)[C@@H](CC(=O)O)OC; X2 = O=C(CCCc1cn(CCCN[*:1])nn1)[*:2]; PABC = O=C(OCc1ccc(N[*:1])cc1)[*:2]; X1 = C[C@@H](N*)[C@@H](O)c1ccccc1; Cit = NC(=O)NCCC[C@H](N)C(=O)O; Suc = O=C(CCC(=O)[*:2])[*:1]; NMeV = CN[C@H](C(=O)O)C(C)C; Ahx = NCCCCCC(=O)O
Experiments:
LNCaP cells = assay: In vitro cytotoxicity, MTS assay, LNCaP; type: cell-based; settings: 72 h, high PSMA expression, range 0.5 to 800 nM, triplicates
Protocol: (§1) The resulting bimodal conjugates were tested in vitro on three different PCa cell lines. We used LNCaP cells with high PSMA expression, 22Rv1 cells with moderate PSMA expression and PC-3 cells with extremely low PSMA expression. Different levels of PSMA expression in 22Rv1 and LNCaP cell lines allows evaluation of the effect of the level of expression on the toxicity of the target drugs. PSMA-negative cell line PC-3 allows a qualitative assessment of non-specific toxicity of the obtained compounds.
(§2) The cytotoxicity of the investigated substances was tested using the MTS assay with some modifications. Cells were seeded in the 96-well plates (Corning, New York, NY, USA) at concentration of 7000 cells per well for PC-3 culture, 12,000 cells per well for LNCaP cells and 20,000 cells per well for 22Rv1 line. The cells were counted using the automatic cell counter EVE. All cell lines were purchased from the American Type Culture Collection (ATCC, Manassas, VA, USA). After 1 day, serial dilutions of tested substances were added to the cells. Cell culture medium with addition of DMSO in appropriate concentrations was used as a negative control. DMSO (30%) was added in culture medium as a positive control. Cells were then incubated during 72 h at 37 °C and 5% CO2. Later, the culture medium from each well was removed and 20 μL of MTS reagent (CellTiter 96 AQueous Non-Radioactive Cell Proliferation Assay, Promega) were added to each well with 100 μL of new culture medium. After 4 h incubation at 37 °C in darkness, the absorbance of the solution was measured at 490 nm wavelength using Thermo Scientific Multiskan GO spectrometer. Cell viability was calculated as a percentage compared to control cells. The absorbance of MTS reagent in culture medium without cells was taken as zero. […] Experiments were performed in triplicates. Data were analyzed using Prism 9—GraphPad version 9.2.0 software. p values < 0.05 were considered significant.

22Rv1 cells = assay: In vitro cytotoxicity, MTS assay, 22Rv1; type: cell-based, human; settings: 72 h, moderate PSMA expression, range 0.5 to 800 nM, triplicates
Protocol: as §1, §2

PC-3 cells = assay: In vitro cytotoxicity, MTS assay, PC-3; type: cell-based, human; settings: 72 h, extremely low PSMA expression, range 0.5 to 800 nM, triplicates
Protocol: as §1, §2

CC[C@H](C)[C@@H]([C@@H](CC(=O)N1CCC[C@H]1[C@H](OC)[C@@H](C)C(=O)N[C@H](C)[C@@H](O)c1ccccc1)OC)N(C)C(=O)[C@@H](NC(=O)[C@H](C(C)C)N(C)C(=O)OCc1ccc(NC(=O)[C@H](CCCNC(N)=O)NC(=O)[C@@H](NC(=O)CCCc2cn(CCCNC(=O)[C@H](Cc3ccc(O)cc3)NC(=O)[C@H](Cc3ccccc3)NC(=O)CCC(=O)NCCCCCC(=O)N(CCCC[C@H](NC(=O)N[C@@H](CCC(=O)O)C(=O)O)C(=O)O)Cc3cccc(Cl)c3)nn2)C(C)C)cc1)C(C)C [I, reference compound] ({GluureaLys(ε-3-ClBenzyl)-Ahx-Suc}-FY[X2]V[Cit][PABC][NMeV]V[Dil][Dolaproine]-X1)
CC50, LNCaP (LNCaP cells): 77.7 ± 1.3 nM | CC50, 22Rv1 (22Rv1 cells): 78.5 ± 0.8 nM | CC50, PC-3 (PC-3 cells): >800 nM

CC[C@H](C)[C@@H]([C@@H](CC(=O)N1CCC[C@H]1[C@H](OC)[C@@H](C)C(=O)N[C@H](C)[C@@H](O)c1ccccc1)OC)N(C)C(=O)[C@@H](NC(=O)[C@@H](NC)C(C)C)C(C)C [MMAE, Monomethyl Auristatin E, reference compound] (H-[NMeV]V[Dil][Dolaproine]-X1)
CC50, LNCaP (LNCaP cells): 0.69 ± 0.1 nM | CC50, 22Rv1 (22Rv1 cells): 0.42 ± 0.2 nM | CC50, PC-3 (PC-3 cells): >800 nM

— paper PMC10380083, “Synthesis of Prostate-Specific Membrane Antigen-Targeted Bimodal Conjugates of Cytotoxic Agents and Antiandrogens and Their Comparative Assessment with Monoconjugates” (International Journal of Molecular Sciences, 2023)
